Source: patent US20240366577A1, “CONTROLLED LONG-TERM DRUG DELIVERY AND METHODS THEREOF” (THE JOHNS HOPKINS UNIVERSITY, priority 2021, published 2024)

Key:
[1] = in vitro release under accelerated release conditions; type: physicochemical; details: 37° C., PBS+0.3% SDS, 2.9 mg drug, 12-day time course; amorphous vs 50 μm vs 150-200 μm crystals
Excerpt: After crystals visibly stopped precipitating or growing, the vessel was submerged in an ultrasonic water bath for 10-30 seconds to dislodge crystals from the vessel sidewall and break them into more a uniform size distributions, either smaller fines, for example 50 μm, or between 150-200 μm, as measured by brightfield and scanning electron microscopy, shown in FIGS. 2A-2B. Resultant product was then removed from the supernatant mother solution, dried, weighed, and stored for later use. On average, yielded crystal was approximately 40% of the starting powder. Furthermore, methods exist to quantify solubilized material, typically using optics to identify changes in light transmittance, and enabled testing of crystal stability in a range of aqueous solutions. […] To simulate cumulative drug release over time, all 3 mL supernatant volumes were removed and replaced with completely fresh release media at desired times of 1 hr, 4 hr, 6 hr, 8 hr, 10 hr, 1 day, 2 days, 5 days, 7 days, 10 days and 12 days, and 200 μL aliquots were measured in individual wells of a 96-well plate at 266 nm to determine solubilize sorafenib release, as shown in FIG. 2D.
Release studies were carried out under accelerated conditions in PBS with 0.3% w/v SDS in 1X PBS. […] Drug concentration in samples was measured using a UV-calibrated Tecan infinite M200 PRO. […]

[2] = system: choroidal neovascularization (CNV); experiment: mouse laser-induced CNV model, fundus fluorescein angiography; type: in vivo; details: two intravitreal doses (14 days before and 1 day after laser) vs saline; p=0.0290 single lesion analysis
Excerpt: Wet age-related macular degeneration (wet AMD) is a leading cause of blindness in the U.S. and globally, requiring effective treatments, particularly with the use of drugs or treatments that allow sustained management of the disease. Choroidal neovascularization (CNV), or pathologic angiogenesis, is the cause of the visual loss that occurs in wet AMD. Therefore, sorafenib is also a possible treatment for wet AMD, but the effect of the drug when delivered in a liquid form is brief. It has been shown that optimized crystal formulations of sorafenib providing sustained release have the potential to work over a longer period of time. As shown herein, the experiments tested the effect of intravitreal administration of crystal sorafenib vs. vehicle, in saline, of sorafenib in a mouse laser-induced CNV model. FIG. 5 depicts a timeline of an experimental procedure, in accordance with the present disclosure. Crystalline sorafenib, as described herein, was administered to two batches of mice. In the first batch of mice, 16 mice were injected, 14 days before a laser treatment and 1 day after laser treatment. In the second batch of mice, 13 mice were injected 7 days before laser treatment. FIGS. 6A-6D depict charts of fluorescent intensity as measured with the use of fundus fluorescein angiography (FFA), according to the present disclosure. […]

For `CNC(=O)c1cc(Oc2ccc(NC(=O)Nc3ccc(Cl)c(C(F)(F)F)c3)cc2)ccn1` [crystalline sorafenib, sorafenib], the “release of solubilized sorafenib (cumulative)” value [1] was “tuned by varying crystal” and the “CNV (FFA fluorescent intensity)” value [2] was “appears to reduce CNV”.
